The record followed here is ChEMBL document CHEMBL1133150, “N-formyl hydroxylamine containing dipeptides: generation of a new class of vasopeptidase inhibitors” (Bioorg Med Chem Lett, 2000).

SMILES strings stand for the structures.

One assay deals with T1, Neprilysin (Rattus norvegicus, UniProt P07861).
T1 sequence (P07861 whole entry): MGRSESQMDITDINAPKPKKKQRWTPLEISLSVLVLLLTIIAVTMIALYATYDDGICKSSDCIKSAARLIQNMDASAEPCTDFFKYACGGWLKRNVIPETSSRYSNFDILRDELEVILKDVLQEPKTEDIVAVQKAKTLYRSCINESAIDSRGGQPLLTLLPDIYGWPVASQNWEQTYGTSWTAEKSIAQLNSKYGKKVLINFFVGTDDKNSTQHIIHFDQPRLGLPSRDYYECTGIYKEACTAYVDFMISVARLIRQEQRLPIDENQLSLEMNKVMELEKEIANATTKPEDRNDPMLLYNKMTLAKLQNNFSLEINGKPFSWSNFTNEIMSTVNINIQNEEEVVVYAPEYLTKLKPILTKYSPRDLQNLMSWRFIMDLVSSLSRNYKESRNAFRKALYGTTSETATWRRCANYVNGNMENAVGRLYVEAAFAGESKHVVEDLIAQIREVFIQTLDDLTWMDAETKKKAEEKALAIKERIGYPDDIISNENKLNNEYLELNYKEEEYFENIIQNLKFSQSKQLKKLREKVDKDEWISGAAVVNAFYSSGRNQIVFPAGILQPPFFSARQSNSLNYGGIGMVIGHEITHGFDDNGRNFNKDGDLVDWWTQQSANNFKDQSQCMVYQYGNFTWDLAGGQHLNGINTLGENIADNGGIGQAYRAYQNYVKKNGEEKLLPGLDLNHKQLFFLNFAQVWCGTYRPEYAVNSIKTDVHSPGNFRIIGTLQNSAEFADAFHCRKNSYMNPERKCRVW
Put plainly: Inhibition of Neutral endopeptidase.

In assay [1] the target is T2, Angiotensin-converting enzyme (Oryctolagus cuniculus, UniProt P12822).
T2 sequence (P12822 whole entry): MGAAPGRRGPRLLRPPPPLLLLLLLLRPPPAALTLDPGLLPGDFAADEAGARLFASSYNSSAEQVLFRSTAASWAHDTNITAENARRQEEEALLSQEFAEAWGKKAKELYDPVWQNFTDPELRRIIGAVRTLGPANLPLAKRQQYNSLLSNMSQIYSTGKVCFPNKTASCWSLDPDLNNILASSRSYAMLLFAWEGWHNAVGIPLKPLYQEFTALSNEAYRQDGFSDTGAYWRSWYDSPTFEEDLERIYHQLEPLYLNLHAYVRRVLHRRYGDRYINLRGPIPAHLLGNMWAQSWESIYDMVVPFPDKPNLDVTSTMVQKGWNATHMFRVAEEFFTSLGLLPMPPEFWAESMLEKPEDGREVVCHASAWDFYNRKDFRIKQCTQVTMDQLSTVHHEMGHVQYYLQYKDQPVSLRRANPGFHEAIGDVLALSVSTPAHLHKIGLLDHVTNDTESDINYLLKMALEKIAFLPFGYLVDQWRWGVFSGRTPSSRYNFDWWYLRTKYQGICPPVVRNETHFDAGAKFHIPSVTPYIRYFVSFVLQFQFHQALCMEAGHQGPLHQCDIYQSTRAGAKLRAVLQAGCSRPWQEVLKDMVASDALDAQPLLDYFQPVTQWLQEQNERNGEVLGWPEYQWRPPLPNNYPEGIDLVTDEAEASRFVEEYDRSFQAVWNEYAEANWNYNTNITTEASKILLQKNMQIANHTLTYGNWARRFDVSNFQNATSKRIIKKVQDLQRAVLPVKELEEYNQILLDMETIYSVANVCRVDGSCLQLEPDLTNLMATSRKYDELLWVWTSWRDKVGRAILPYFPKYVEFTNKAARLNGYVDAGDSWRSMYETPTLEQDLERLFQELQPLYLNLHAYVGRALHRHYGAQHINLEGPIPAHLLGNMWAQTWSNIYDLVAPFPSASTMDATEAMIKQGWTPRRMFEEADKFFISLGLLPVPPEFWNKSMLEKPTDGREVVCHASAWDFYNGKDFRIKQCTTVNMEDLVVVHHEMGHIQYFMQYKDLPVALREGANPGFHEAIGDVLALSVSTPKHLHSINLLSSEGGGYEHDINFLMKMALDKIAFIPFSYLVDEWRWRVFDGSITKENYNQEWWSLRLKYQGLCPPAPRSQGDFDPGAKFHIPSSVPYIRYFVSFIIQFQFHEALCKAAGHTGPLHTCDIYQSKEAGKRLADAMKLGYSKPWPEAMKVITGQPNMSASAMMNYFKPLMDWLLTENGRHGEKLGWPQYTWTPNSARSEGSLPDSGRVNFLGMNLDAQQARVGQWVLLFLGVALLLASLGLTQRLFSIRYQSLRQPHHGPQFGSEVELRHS
Put plainly: Inhibition of Angiotensin I converting enzyme.

Broadly, the IC50 is the concentration that inhibits the measured activity by half. Low readings indicate inhibition by little substance, high ones a need for much substance. With `CS(=O)(=O)N[C@@H](CCCCN)C(=O)NC[C@H](CC1(C(=O)N[C@@H](Cc2ccc(O)cc2)C(=O)O)CCCC1)C(=O)O` [SAMPATRILAT], the values for the IC50 (on Neprilysin; in assay [1]) were 0.02 µM and 0.007 µM, respectively.

`CC1(C)CCC[C@H](NC(=O)[C@H](Cc2ccccc2)CN(O)C=O)C(=O)N1CC(=O)O`: the IC50 against Neprilysin came to 0.018 µM; in assay [1] it was 0.0054 µM.

On to `CC(C)[C@H](NCP(=O)(O)O)C(=O)N[C@@H](Cc1ccc(-c2ccccc2)cc1)C(=O)O`, for which the 50% inhibitory concentration (IC50) on Neprilysin was 0.003 µM; in assay [1], 0.025 µM.

Consider `CC(=O)N(O)CC(Cc1ccccc1)C(=O)N[C@@H](CC(C)C)C(=O)N[C@@H](Cc1ccccc1)C(=O)O` (stereo not given in full), for which the IC50 was 214 µM at Neprilysin and 461 µM in assay [1].

In the case of `O=CN(O)C[C@@H](Cc1ccccc1)C(=O)N[C@H]1CCc2ccccc2N(CC(=O)O)C1=O`, the IC50 stood at 0.0013 µM against Neprilysin and 0.0053 µM in assay [1].

Regarding `O=C(N[C@H]1CCS[C@H]2CCC[C@@H](C(=O)O)N2C1=O)[C@@H](S)Cc1ccccc1` [OMAPATRILAT], the concentration for half-maximal inhibition (IC50) stood at 0.009 µM against Neprilysin and 0.006 µM in assay [1].

As for `O=CN(O)C[C@@H](Cc1ccccc1)C(=O)N[C@H]1Cc2ccccc2[C@H]2CCC[C@@H](C(=O)O)N2C1=O`, the half-inhibitory concentration (IC50) against Neprilysin turned out to be 0.0018 µM; in assay [1], 0.0034 µM.

Regarding `CC(C)C[C@H](NC(=O)C(Cc1ccccc1)CN(O)C(N)=O)C(=O)N[C@@H](Cc1ccccc1)C(=O)O` (stereo not given in full), the figures for the IC50 (against Neprilysin; in assay [1]) were 705 µM and 529 µM, respectively.

On to `CC(C)C[C@H](NC(=O)C(Cc1ccccc1)CN(O)C=O)C(=O)N[C@@H](Cc1ccccc1)C(=O)O` (stereo not given in full), for which the results for the IC50 (against Neprilysin; in assay [1]) were 1.27 µM and 0.106 µM, respectively.

Consider `CC(C)C[C@H](NC(=O)[C@H](Cc1ccccc1)N(O)C=O)C(=O)N[C@@H](Cc1ccccc1)C(=O)O`, for which the values for the IC50 (against Neprilysin; in assay [1]) were 93 µM and 228 µM, respectively.
